System: hepatocytes
Assay: Seq-Well scRNA-Seq of hepatocytes after APAP overdose (signature scores, DEG vs untreated)
Type: in vivo, mouse
Conditions: A6 vs UT

SMILES: CC(=O)Nc1ccc(O)cc1 [APAP, acetaminophen]
- Ash11 A6logFC: 0.2657
- Asl avg_logFC: 0.5586
- Atf4 A6logFC: 0.3411
- Atf6 A6logFC: 0.3778
- Atox1 avg_logFC: −0.4462
- Atox1 pct.1: 0.382
- Atp1a1 avg_logFC: 0.4191
- Atp1a1 pct.1: 0.53
- Atp1b1 A6logFC: 0.3702
- Atp2a2 avg_logFC: 0.495
- Atp2b1 A6logFC: 0.3321
- Atp5e avg_logFC: −0.6502
- Atp5f1 avg_logFC: −0.5171
- Atp5f1 pct.1: 0.69
- Atp5j2 avg_logFC: −0.5131
- Atp5j2 pct.1: 0.606
- Atp5k avg_logFC: −0.4773
- Atp5k pct.1: 0.368
- Atp13a3 avg_logFC: 0.3945
- Atp13a3 pct.1: 0.532
- Atp5h avg_logFC: −0.6398
- B2m avg_logFC: −0.3304
- B2m pct.1: 0.871
- B4galt5 avg_logFC: 0.4763
- BC005537 A6logFC: 0.3543
- Bach1 avg_logFC: 0.8323
- Bbox1 avg_logFC: −0.4082
- Bbox1 pct.1: 0.308
- Bc1af1 A6logFC: 0.2685
- Bcl2l1 avg_logFC: 0.7751
- Bcl3 avg_logFC: 0.289
- Bcl3 pct.1: 0.277
- Bclaf1 avg_logFC: 0.2685
- Bclaf1 pct.1: 0.372
- Bdh1 avg_logFC: −0.2936
- Bdh1 pct.1: 0.315
- Bdhl A6logFC: −0.2936
- Bet1 A6logFC: −0.2966
- Birc6 A6logFC: 0.3444
- Birc6 avg_logFC: 0.3444
- Birc6 pct.1: 0.446
- Blvrb avg_logFC: −0.5451
- Blvrb pct.1: 0.286
- Bphl avg_logFC: −0.4075
- Bphl pct.1: 0.339
- Brd2 A6logFC: 0.5715
- Brd2 avg_logFC: 0.5715
- Brd2 pct.1: 0.542
- Bst2 A6logFC: −0.3156
- Btaf1 A6logFC: 0.2755
- Btaf1 avg_logFC: 0.2755
- Btaf1 pct.1: 0.284
- Btg1 avg_logFC: 0.458
- Btg1 pct.1: 0.356
- Btg2 avg_logFC: 0.8321
- Bzw1 avg_logFC: 0.2948
- Bzw1 pct.1: 0.475
- C1qa avg_logFC: 0.5148
- C1qa pct.1: 0.174
- C1qc avg_logFC: 0.5861
- C1qc pct.1: 0.172
- C8g avg_logFC: −0.6545
- C1d A6logFC: −0.2553
- C1d avg_logFC: −0.2553
- C1d pct.1: 0.208
- C230081A13Rik avg_logFC: 0.427
- Cald1 avg_logFC: 0.3737
- Cald1 pct.1: 0.766
- Cap1 A6logFC: 0.3251
- Cap1 avg_logFC: 0.3251
- Cap1 pct.1: 0.356
- Car3 avg_logFC: −1.036
- Car5a A6logFC: −0.3088
- Cbr1 avg_logFC: 0.2847
- Cbr1 pct.1: 0.494
- Ccbl1 avg_logFC: −0.3649
- Ccbl1 pct.1: 0.205
- Ccdc50 A6logFC: 0.2858
- Ccdc50 avg_logFC: 0.2858
- Ccdc50 pct.1: 0.401
- Ccl6 avg_logFC: 0.7891
- Ccnl1 A6logFC: 0.2566
- Ccnl1 avg_logFC: 0.2566
- Ccnl1 pct.1: 0.351
- Ccs avg_logFC: −0.4267
- Ccs pct.1: 0.42
- Cd5l avg_logFC: 0.6935
- Cd14 avg_logFC: 0.3621
- Cd44 avg_logFC: 0.3037
- Cd44 pct.1: 0.115
- Cd53 avg_logFC: 0.2656
- Cd53 pct.1: 0.103
- Cd74 avg_logFC: 0.4539
- Cd74 pct.1: 0.155
- Cd97 avg_logFC: 0.3458
- Cd97 pct.1: 0.115
- Cd163 avg_logFC: 0.4408
- Cd163 pct.1: 0.146
- Cd302 avg_logFC: −0.5499
- Cdh1 A6logFC: 0.2697
- Cdh1 avg_logFC: 0.2697
- Cdh1 pct.1: 0.327
- Cdkn1a avg_logFC: 1.215
- Cebpa avg_logFC: −0.3916
- Cebpa pct.1: 0.442
- Cela1 A6logFC: −0.2723
- Cep85 A6logFC: 0.2839
- Cep85 avg_logFC: 0.2839
- Cep85 pct.1: 0.313
- Cers6 avg_logFC: 0.5328
- Ces3a avg_logFC: −0.5253
- Ces3b avg_logFC: −0.3664
- Ces3b pct.1: 0.57
- Cfhr1 A6logFC: −0.3253
- Cfp avg_logFC: 0.3562
- Cfp pct.1: 0.143
- Chac2 avg_logFC: −0.2865
- Chac2 pct.1: 0.057
- Chchd1 avg_logFC: −0.4398
- Chchd1 pct.1: 0.21
- Chchd2 avg_logFC: −0.5525
- Chchd10 avg_logFC: −0.4019
- Chchd10 pct.1: 0.802
- Chd1 avg_logFC: 0.3788
- Chd1 pct.1: 0.377
- Chic2 avg_logFC: 0.4198
- Chic2 pct.1: 0.37
- Chka avg_logFC: 1.375
- Chmp4b A6logFC: 0.3002
- Chuk A6logFC: 0.3724
- Cidec avg_logFC: 0.2994
- Cldn2 A6logFC: −0.2511
- Cldn14 avg_logFC: 0.3645
- Cldn14 pct.1: 0.32
- Clec4f avg_logFC: 1.108
- Clec4d avg_logFC: 0.2636
- Clec4d pct.1: 0.107
- Clic4 A6logFC: 0.2998
- Clic4 avg_logFC: 0.2998
- Clic4 pct.1: 0.368
- Clqb avg_logFC: 0.6817
- Cltc avg_logFC: 0.785
- Cmbl avg_logFC: −0.4427
- Cmbl pct.1: 0.415
- Cml1 avg_logFC: −0.6142
- Coa6 avg_logFC: −0.4114
- Coa6 pct.1: 0.15
- Coasy A6logFC: −0.2534
- Coasy avg_logFC: −0.2534
- Coasy pct.1: 0.327
- Commd3 A6logFC: −0.2656
- Commd3 avg_logFC: −0.2656
- Commd3 pct.1: 0.274
- Commd6 avg_logFC: −0.3645
- Commd6 pct.1: 0.172
- Cox4i1 avg_logFC: −0.516
- Cox5b avg_logFC: −0.4988
- Cox5b pct.1: 0.425
- Cox6a1 avg_logFC: −0.4872
- Cox6a1 pct.1: 0.675
- Cox6c avg_logFC: −0.8443
- Cox7a2 avg_logFC: −0.6503
- Cox7b avg_logFC: −0.6422
- Cp avg_logFC: 0.2541
- Cp pct.1: 0.89
- Creb3l2 avg_logFC: 0.4272
- Crp avg_logFC: −0.5069
- Crp pct.1: 0.477
- Csad avg_logFC: −0.5598
- Csad pct.1: 0.473
- Csrp3 A6logFC: −0.294
- Ctnnd1 A6logFC: 0.2518
- Ctnnd1 avg_logFC: 0.2518
- Ctnnd1 pct.1: 0.358
- Ctsb A6logFC: 0.5213
- Ctsb avg_logFC: 0.5213
- Ctsb pct.1: 0.804
- Ctsc A6logFC: 0.361
- Ctsl avg_logFC: 0.5301
- Ctss avg_logFC: 0.7642
- Cu11 A6logFC: 0.2592
- Cu13 A6logFC: 0.2788
- Cul1 avg_logFC: 0.2592
- Cul1 pct.1: 0.425
- Cul3 avg_logFC: 0.2788
- Cul3 pct.1: 0.415
- Cxadr avg_logFC: 0.6985
- Cxcl12 avg_logFC: −0.3058
- Cxcl12 pct.1: 0.251
- Cyb5 avg_logFC: −0.7102
- Cybb A6logFC: 0.3778
- Cyp4a10 avg_logFC: 0.4566
- Cyp4a10 pct.1: 0.687
- Cyp4a14 avg_logFC: 1.122
- Cyp4f15 A6logFC: −0.2998
- D10Wsu102e avg_logFC: 0.5878
- Dbi avg_logFC: −0.7164
- Dcaf11 avg_logFC: −0.2817
- Dcaf11 pct.1: 0.446
- Dcxr avg_logFC: −0.4409
- Dcxr pct.1: 0.37
- Ddah1 A6logFC: −0.312
